Experimental data: patent US7572890B2, “Recombinant human mannan-building proteins” (Fuso Pharmaceutical Industries, Ltd., priority 1998, dated 2009)
Read-outs that look alike come from different tables or passages of the source.

Experiments:
rhMBP (with Vitamin C) = biological target: T1, rhMBP (with Vitamin C) (Homo sapiens, UniProt P11226); test: Sugar inhibition of rhMBP (cultured with vitamin C) binding to mannan (ELISA)
T1 construct: made in house; host or cells: CHO DG44 (dhfr-), neomycin/MTX-resistant clones; purified from culture supernatant on mannan-agarose
T1 sequence (P11226 21-248): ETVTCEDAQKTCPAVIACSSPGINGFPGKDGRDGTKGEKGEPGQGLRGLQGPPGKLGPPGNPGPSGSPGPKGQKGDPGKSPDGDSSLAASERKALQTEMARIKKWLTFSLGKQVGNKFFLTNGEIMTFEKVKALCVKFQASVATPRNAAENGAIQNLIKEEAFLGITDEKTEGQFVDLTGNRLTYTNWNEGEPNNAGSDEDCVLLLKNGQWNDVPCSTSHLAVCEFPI

native hMBP = biological target: T2, native hMBP (Homo sapiens, UniProt P11226); test: Sugar inhibition of native hMBP binding to mannan (ELISA)
T2 construct: samples of stepwise dilution of the native hMBP, rhMBP (cultured with vitamin C), rhMBP (cultured without vitamin C)
T2 sequence (P11226 21-248): as above

[1] = biological target: T3, rhMBP (without Vitamin C) (Homo sapiens, UniProt P11226); test: Sugar inhibition of rhMBP (cultured without vitamin C) binding to mannan (ELISA)
T3 construct: made in house; host or cells: CHO DG44 (dhfr-), neomycin/MTX-resistant clones; purified from culture supernatant on mannan-agarose
T3 sequence (P11226 21-248): as above

[2] = tested on: Influenza A virus A/Ibaraki/l/90 (H3N2); test: Hemagglutination Inhibition (HI) activities; type: cell-based; conditions: for Minimum Protein Concentration for HI Activities: 16HAU virus, chicken erythrocytes
[3] = tested on: HIV-1 (HIV-gp120, HIV-gp160); test: Binding of rhMBP to blotted viral structural proteins: HIV-1; conditions: rhMBP 1.0 μg/ml; FIG. 20
Experimental: (§1) Binding activities on rhMBP to HIV-1, HBV and Influenza A virus were determined by electrophoresing the following viral structural proteins, transferring them to membranes, binding thereto rhMBP and detecting them with labeled antibody.
(§2) Necessary amounts of viral structural proteins for the electrophoresis were 0.25 μg of HIV-gp120 (HIVIIIB-gp120) (ADVANCED BIOTECHNOLOGIES INCORPORATED (ABI)), 0.25 μg of HIV-gp160 (HIVIIIB-gp160) (ABI), 10 μg of HBS (Hepatitis B Surface Antigen (HBsAg) (ABI), Subtype ad), Influenza A virus (IAV; presented by The Research Foundation For Osaka University Research Institute for Microbial Diseases), 5 μg of H1N1 Yamagata virion and 5 μg of H3N2 Beijin virion.
(§3) SDS-PAGE employed polyacrylamide gel having the concentration gradient of 4˜20%, and HIV-1 and HBS were electrophoresed under reducing condition. After the electrophoresis, they were transferred to Immobilon-P^SQ transfer membrane (Millipore) with NOVA BLOT™ electrophoretic transfer unit (Pharmacia) by using semi-dry electroblot buffer kit (Owl Scientific). After such transfer, they were blocked with BLOCKACE™ blocking solution (Dainippon Pharmaceutical) at room temperature for one hour. […]

[4] = tested on: Influenza A virus A/Ibaraki/1/90; type: cell-based; conditions: 0.5 and 1 μg/ml, three days; FIG. 21
guinea pig complement = test: Complement activation: hemolysis of mannan-sensitized sheep erythrocyte
[5] = tested on: Influenza A virus A/Ibaraki/l/90; test: Neutralization activities (focus reduction on MDCK cells); type: cell-based
[6] = Sugar binding activity of MBP on mannan-coated plates (ELISA); conditions: Table 1
Experimental: Microtiter Plates were treated with 100 μl of coating buffer (15 mM sodium carbonate, 35 mM sodium hydrogen carbonate, 0.05% sodium azide, pH 9.6) containing mannan (10 μg/ml:SIGMA) at 4° C. overnight. After each treatment step, the plates were washed three times with TBSNTC solution (TBS, 0.05% sodium azide, 0.05% TWEEN 20 (Registered Trade Mark), 5 mM calcium chloride). After completing the coating of the plates, the plates were treated and blocked with BLOCKACE™ blocking solution (Dainippon Pharmaceutical) at room temperature for one hour.
After washing them, samples of stepwise dilution of the native hMBP, rhMBP (cultured with vitamin C), rhMBP (cultured without vitamin C) having the concentration of 200, 100, 50, 25, 12.5, 6.25 ng/ml, combination samples of 200 ng/ml of each hMBP with EDTA added to be its concentration of 10 mM, and combination samples of 50 ng/ml of each hMBP with mannose added to be its concentration of 100 mM were prepared, thereafter, 100 μl of each of them were poured into each well and were incubated at 37° C. for one hour. […] After incubating them at room temperature for 30 minutes, 100 μl of 1M phosphoric acid were added thereto, and their absorbance were measured at 450 nm (Model 450 Microplate Reader; Bio-Rad). […]

[7] = tested on: HBV (Hepatitis B Surface Antigen); test: Binding of rhMBP to blotted viral structural proteins: HBV; conditions: rhMBP 1.0 μg/ml; FIG. 20
Experimental: as §1, §2, §3

[8] = tested on: Influenza A virus (H1N1 Yamagata virion, H3N2 Beijin virion); test: Binding of rhMBP to blotted viral structural proteins: Influenza A virus; conditions: rhMBP 1.0 μg/ml; FIG. 20
Experimental: as §1, §2, §3

[9] = rhMBP (with Vitamin C), mannan-coated microtiter plates, read-out: I 50: Sugar concentration to halve binding activities with mannan
[10] = native hMBP, mannan-coated microtiter plates, read-out: I 50: Sugar concentration to halve binding activities with mannan
[11] = rhMBP (without Vitamin C), mannan-coated microtiter plates, read-out: I 50: Sugar concentration to halve binding activities with mannan

| Molecule | IC50 (rhMBP (with Vitamin C); [9]) | IC50 (native hMBP; [10]) | IC50 [1, 11] | further results |
| --- | --- | --- | --- | --- |
| C[C@@H](O)[C@H](O)[C@H](O)[C@@H](O)C=O [D-Fucose] | 39.1 mM | 33.5 mM | 86.7 mM | – |
| O=C[C@@H](O)[C@@H](O)[C@H](O)[C@H](O)CO [D-Mannose] | – | – | – | IC50 (rhMBP (with Vitamin C)): 6.7 mM; IC50 (native hMBP): 3.7 mM; IC50 [1]: 6.8 mM |
| O=C[C@H](O)[C@@H](O)[C@@H](O)[C@H](O)CO [Galactose] | – | – | – | IC50 (rhMBP (with Vitamin C)): 29.8 mM; IC50 (native hMBP): 24.2 mM; IC50 [1]: 36.7 mM |
| C[C@H](O)[C@@H](O)[C@@H](O)[C@H](O)C=O [L-Fucose] | 4.4 mM | 4.2 mM | 8.7 mM | – |
| OC[C@H]1O[C@@H](O[C@H]2[C@H](O)[C@@H](O)C(O)O[C@@H]2CO)[C@H](O)[C@@H](O)[C@H]1O (stereo partly shown) [Lactose] | 46.6 mM | 36 mM | 59.4 mM | – |
| OC[C@H]1O[C@H](O[C@H]2[C@H](O)[C@@H](O)[C@H](O)O[C@@H]2CO)[C@H](O)[C@@H](O)[C@@H]1O [Maltose] | 6.4 mM | 7.4 mM | 7.4 mM | – |
| CC(=O)N[C@H]1C(O)O[C@H](CO)[C@H](O)[C@@H]1O (stereo partly drawn) [N-Acetyl-D-Galactosamine] | > 100 mM | > 100 mM | > 100 mM | – |
| CC(=O)N[C@H]1C(O)O[C@H](CO)[C@@H](O)[C@@H]1O (stereo partly drawn) [N-Acetyl-D-Glucosamine] | 3.6 mM | 2.7 mM | 3.8 mM | – |
| CC(=O)N[C@@H]1C(O)O[C@H](CO)[C@@H](O)[C@@H]1O (stereo partly drawn) [N-Acetyl-D-Mannosamine] | 6.9 mM | 4.4 mM | 6.9 mM | – |
| native hMBP: natural Human Mannan-Binding Protein, used as comparator | – | – | – | Minimum Protein Concentration for HI Activities [2]: 40 ng/mL |
| rhMBP (with Vitamin C): rhMBP from CHO clone cultured in medium with vitamin C added | – | – | – | Minimum Protein Concentration for HI Activities [2]: 80 ng/mL |
| rhMBP (without Vitamin C): rhMBP from CHO clone cultured in medium without vitamin C | – | – | – | Minimum Protein Concentration for HI Activities [2]: 80 ng/mL |
| rhMBP: recombinant human Mannan-Binding Protein expressed from pNOW1-hMBP in dhfr- CHO cells, purified on mannan-agarose | – | – | – | Hemagglutination Inhibition (HI) activities compared with native hMBP ([2]; Table 2 and FIG. 18): not inferior to that by native hMBP; Binding activities to HIV-1 [3]: have binding activities; Viral growth inhibition (gross area of virus-infected focus) [4]: reduced focus area infected by influenza viruses concentration-dependently; Hemolysis of sensitized sheep erythrocyte (complement activation) (guinea pig complement; 1, 10, 100 and 1000 ng/tube, FIG. 22): hemolyzed concentration-dependently sensitized sheep erythrocyte substantially like the native hMBP; Complement activation on addition of mannose (guinea pig complement; mannose added): suppressed by an addition of mannose; Neutralization activities on addition of mannose ([5]; 100 mM mannose): inhibited by addition of mannose; Neutralization activities for influenza virus (reduction rate of FFU) ([5]; FIG. 19, MDCK cells): had neutralization activities for influenza virus; Sugar binding specificities compared with native hMBP [6]: substantially identical to those by the native hMBP; Binding activities to HBV [7]: have binding activities; Binding activities to Influenza A virus [8]: have binding activities |
